Laboratory results published in patent US20200055835A1, “USE OF TRICYCLIC SESQUITERPENE LACTONES IN THE TREATMENT OF OBESITY AND RELATED DISEASES AND NON-THERAPEUTIC TREATABLE CONDITIONS” (NEEM BIOTECH LTD., priority 2010, published 2020).

Key:
[1] = tested on: Mealworm (Tenebrio molitor); conditions: cited from earlier work
[2] = Feeding experiment: body weight and body fat (DEXA) in rats; assay type: in vivo, Sprague-Dawley (SD) rats; conditions: high fat diet (34% fat), 0.1% by weight in chow, 8 weeks, male SD rats
Method: For the present experiments, the compound to be tested is added to the feed of the individuals. This is beneficial against enforcement because it allows a validation of the acceptance of the test compounds. The experiments are performed with negative control and are correlated to a commercial slimming product.
Cynaropicrin is tested using six weeks old, none-adult, male Sprague-Dawley (SD) rats (Charles Rivers, Sulzfeld, Germany). Cynaropicrin is mixed with the chow (ssniff Spezial-diäten GmbH, Soest, Germany) to a final concentration of 0.1% by weight and fed for 8 weeks in two different treatment regimes: • Balanced diet (standardised to 4% fat) • High fat diet (standardised to 34% fat)
Controls obtain the same diet without Cynaropicrin or other anti-obesity additives.
Body weight is studied and analysed every week, body fat and mineral bone density are analysed by DEXA (scanner, see Example 3) in week 0, in week 4 and at the last day of the study in week 8. Furthermore, the white body fat weight is determined after removal of the tissue at the end of the feeding study in week 8. For the DEXA measurements the same apparatuses and methodology are used as described in example 3.
The GE Lunar Piximus2 DEXA scanner (GE Healthcare, Munich, Germany) gives accurate information on differences in body composition in mice (see Nagy, T R and Clair, A-L. Precision and accuracy of dual-energy X-ray absorptiometry for determining in vivo body composition in mice. Obesity Res. 2000; 8:392-398; Brommage Am J Physiol Endocrinol Metab 285: E454-E459, 2003). Validation and calibration of DEXA body composition in mice; Sarah L. Johnston, Wendy L. Peacock, Lynn M. Bell, Michel Lonchampt, and John R. Speakman, Obesity Research 2005 13 (9), 1558). One scanning procedure takes up to five minutes per individual and provides data on fat mass, lean mass, bone mineral content and bone mineral density. The method is validated against Soxhlet (SOX) fat extraction in mice and a strong correlation (r 2>0.95) between fatDEXA and fatSOX is determined (published information).
As a control experiment within the high fat diet, epigallocatechin-3-gallate (EGCG, Chengdu Purification Technology Development Co. Ltd, Chengdu, China) in pure form is used as the standard for comparison of potency and differentiation as well as benchmark against competing compounds or formulations against obesity. […] EGCG is marketed as a functional food ingredient claiming an anti-obesity effect (Wolfram, S et al. Mol Nutr Food Res 2006; 50(2):176-87; Wolfram, S et al. Ann Nutr Metab 2005; 49(1):54-6, Klaus, S et al. Int J Obes 2005; 29(6):615-23; Hill, A M et al. J Am Coil Nutr. 2007; 26(4):396S-402S). The final concentration of EGCG used is 0.1%, too.

[3] = Clinical blood chemistry of the rat study; assay type: in vivo; conditions: rats under high fat (HF) diet
Method: The following parameters are involved in energy metabolism and thereby related to the metabolic syndrome. They are determined from blood samples taken in week 1; 4; and 8 of the rat study: Total cholesterol levels; HDL, LDL, TG (triglycerides), and glucose. Furthermore, the activity of liver enzymes such as ALT (alanin-aminotransferase), AST (aspartat-aminotransferase), and AP (alkaline phosphatase), as well as the concentration of Bilirubin, Albumin, Creatin Kinase, and electrolytes (Na+; K+; Ca++; Cl−) are determined as safety markers to exclude any toxic effects such as e.g. liver damage.
Blood samples are taken from the sublingual vein and collected in Li-Heparin coated vials. The blood samples are stored on ice for a short period of time before it is centrifuged for 15 minutes at 8° C. and 3500 rpm. The supernatant plasma is transferred in a reaction tube and stored at −80° C. until clinical chemistry measurements are performed. All measurements are conducted using an Olympus AU 400 at the gene centre of the LMU Munich, working group of Prof. Wolf. Statistical calculations are performed with Statistika (Statsoft (Europe) GmbH, Hamburg, Germany) und Sigma Stat (Jandel Scientific, San Raphael, Calif., USA).

[4] = Pathological parameters: macroscopic organ inspection and kidney histo-pathology; assay type: in vivo; conditions: rat feeding study
Method: Main organs are analysed macroscopically for safety reasons and to investigate the effects of the different diets on these organs (e.g. induction of […] (“fatty”) livers etc.). After organ removal, macroscopic inspections of e.g. heart, kidneys; GI tract, spleen, liver are performed.

[5] = olive oil-loaded mice, 6 hours; cited from earlier work

Molecule | antifeeding activity [1] | larval growth [1] | lipid levels in blood [1] | body fat accumulation (DEXA) in comparison to the control groups [2] | body weight accumulation in comparison to the control groups [2] | serum TG, long term [5] | other results
C=C1CC(O)C2C(=C)C(=O)OC2C2C(C)C(=O)CC12 (centres unmarked) [Grossheimin, 4-hydroxy-9-methyl-3,6-dimethylene-3a,4,5,6a,7,9,9a,9b-octahydroazuleno[5,4-d]furan-2,8-dione] | no anti-feeding | inhibition of larval growth | no effect | – | – | – | absorption of digested food constituents [1]: little decrease; efficiency in digesting [1]: little decrease
C=C(CO)C(=O)OC1CC(=C)C2CC(O)C(=C)C2C2OC(=O)C(=C)C12 (centres unmarked) [Cynaropicrin, (8-hydroxy-3,6,9-trimethylidene-2-oxo-3a,4,5,6a,7,8,9a, 9b-octahydroazuleno[4,5-b]furan-4-yl) 2-(hydroxymethyl)prop-2-enoate] | – | – | – | reduced body fat accumulation | reduced body weight accumulation | increase | total cholesterol:HDL/LDL ratio compared to the control group (HF only) [3]: improved; macroscopic inspection of main organs (heart, kidneys, GI tract, spleen, liver) ([4]; after organ removal): no significant alterations; histo-pathological analysis of the kidneys (morphology and function) [4]: does not result in any observation of an adverse effect
C=C1C(=O)O[C@H]2[C@H]1[C@@H](OC(=O)[C@]1(C)CO1)CC(=C)[C@@H]1C[C@H](O)[C@]3(CO3)[C@H]21 [repin, reference compound] | antifeeding activity | inhibition of larval growth | no effect | – | – | – | –
epigallocatechin-3-gallate [EGCG, reference compound] | – | – | – | No effects | No effects | – | –
C=C(C)C(=O)O[C@H]1CC(=C)[C@@H]2C[C@H](O)C(=C)[C@@H]2[C@H]2OC(=O)C(=C)[C@@H]21 [aguerine B, reference compound] | – | – | – | – | – | increase | –
